# Reference: patent US11091501B2, “Heterocyclic compounds as RSV inhibitors” (Enanta Pharmaceuticals, Inc., priority 2017, dated 2021)
# Test system: Human RSV-A (“Long” strain)
# Experiment: RSV in vitro cytoprotection assay (CPE, ATPlite) in HEp-2 cells
# Type: cell-based
# Details: human respiratory syncytial virus, 96 h; HEp-2 cells, 4-day incubation, ATPlite readout; read-out: Human RSV-A (“Long” strain) EC50
# Outline: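 HEp-2 cells (8,000/well) given 2-fold serial compound dilutions in duplicate, then infected with sucrose-stabilised RSV-A Long stock. After 4 days, cell viability read by ATPlite luminescence, with a parallel uninfected plate for cytotoxicity. EC50 binned A<0.01 μM, B 0.01-0.05 μM, C>0.05 μM.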
row,SMILES,EC50
1,O=C(Nc1ccccc1F)c1cc2c(o1)-c1ccccc1N(C(=O)c1ccc(NC(=O)c3cc4c(nc3N3CC5(CCOCC5)C3)CCC4)cc1)CC2 [Example 255],< 10 nM
2,Cc1ccc(C(=O)Nc2ccc(C(=O)N3CCc4cc(C(=O)Nc5c(C)cccc5F)oc4-c4ccccc43)cc2)c(N2CC3(CCOCC3)C2)n1 [Example 256],< 10 nM
3,Cc1ccc(C(=O)Nc2ccc(C(=O)N3CCc4cc(C(=O)Nc5c(F)cc(F)cc5F)oc4-c4ccccc43)cc2)c(N2CC3(CCOCC3)C2)n1 [Example 257],< 10 nM
4,Cc1ccc(C(=O)Nc2ccc(C(=O)N3CCc4cc(C(=O)Nc5ccccc5F)oc4-c4ccccc43)cc2)c(N2CC3(CCOCC3)C2)n1 [Example 258],< 10 nM
5,Cc1ccc(C(=O)Nc2ccc(C(=O)N3CCc4cc(C(=O)Nc5c(F)cccc5Cl)oc4-c4ccccc43)cc2)c(N2CC3(CCOCC3)C2)n1 [Example 259],< 10 nM
6,O=C(Nc1ccc(C(=O)N2CCc3cc(-c4nc5ccccc5[nH]4)oc3-c3ccccc32)cc1)c1cc2c(nc1N1CC3(CCOCC3)C1)CCC2 [Example 260],< 10 nM
7,Cc1cnc(N2CC3(CCOCC3)C2)c(C(=O)Nc2ccc(C(=O)N3CCc4sc(C(=O)Nc5c(F)cccc5F)cc4-c4ccccc43)cc2)c1 [Example 261],< 10 nM
8,Cc1cnc(N2CC3(CCOCC3)C2)c(C(=O)Nc2ccc(C(=O)N3CCc4sc(-c5nc6ccccc6[nH]5)cc4-c4ccccc43)cc2)c1 [Example 262],10 to 50 nM
9,O=C(Nc1c(F)cccc1F)c1cc2c(s1)CCN(C(=O)c1ccc(NC(=O)c3cc4c(nc3N3CC5(CCOCC5)C3)CCC4)cc1)c1ccccc1-2 [Example 263],10 to 50 nM
10,O=C(Nc1ccc(C(=O)N2CCc3sc(-c4nc5ccccc5[nH]4)cc3-c3ccccc32)cc1)c1cc2c(nc1N1CC3(CCOCC3)C1)CCC2 [Example 264],10 to 50 nM
11,Cc1ccc(C(=O)Nc2ccc(C(=O)N3CCc4sc(C(=O)Nc5c(F)cccc5F)cc4-c4ccccc43)cc2)c(N2CC3(CCOCC3)C2)n1 [Example 265],> 50 nM
12,Cc1ccc(C(=O)Nc2ccc(C(=O)N3CCc4sc(-c5nc6ccccc6[nH]5)cc4-c4ccccc43)cc2)c(N2CC3(CCOCC3)C2)n1 [Example 266],< 10 nM
13,Cc1cnc(N2CC3(CCOCC3)C2)c(C(=O)Nc2ccc(C(=O)N3CCc4c(sc(C(=O)Nc5c(F)cccc5F)c4Cl)-c4ccccc43)cc2)c1 [Example 267],< 10 nM
14,Cc1cnc(N2CC3(CCOCC3)C2)c(C(=O)Nc2ccc(C(=O)N3CCc4c(sc(C(=O)Nc5c(C)cccc5F)c4Cl)-c4ccccc43)cc2)c1 [Example 268],< 10 nM
15,Cc1cnc(N2CC3(CCOCC3)C2)c(C(=O)Nc2ccc(C(=O)N3CCc4c(sc(C(=O)Nc5ccccc5Cl)c4Cl)-c4ccccc43)cc2)c1 [Example 269],10 to 50 nM
16,Cc1cnc(N2CC3(CCOCC3)C2)c(C(=O)Nc2ccc(C(=O)N3CCc4c(sc(C(=O)Nc5ccccc5F)c4Cl)-c4ccccc43)cc2)c1 [Example 270],< 10 nM
17,Cc1cnc(N2CC3(CCOCC3)C2)c(C(=O)Nc2ccc(C(=O)N3CCc4c(sc(C(=O)Nc5c(C)cccc5C)c4Cl)-c4ccccc43)cc2)c1 [Example 271],10 to 50 nM
18,Cc1cnc(N2CC3(CCOCC3)C2)c(C(=O)Nc2ccc(C(=O)N3CCc4c(sc(-c5nc6ccccc6[nH]5)c4Cl)-c4ccccc43)cc2)c1 [Example 272],< 10 nM
19,Cc1cnc(N2CC3(CCOCC3)C2)c(C(=O)Nc2ccc(C(=O)N3CCc4c(sc(-c5nc6ccccc6[nH]5)c4C)-c4ccccc43)cc2)c1 [Example 273],10 to 50 nM
20,Cc1cnc(N2CC3(CCOCC3)C2)c(C(=O)Nc2ccc(C(=O)N3CCc4c(sc(C(=O)Nc5c(F)cccc5F)c4C)-c4ccccc43)cc2)c1 [Example 274],< 10 nM
21,Cc1cnc(N2CC3(CCOCC3)C2)c(C(=O)Nc2ccc(C(=O)N3CCc4cc(NC(=O)c5c(F)cccc5F)sc4-c4ccccc43)cc2)c1 [Example 275],< 10 nM
22,Cc1ccc(C(=O)Nc2ccc(C(=O)N3CCc4cc(C(=O)Nc5c(C)cccc5F)sc4-c4ccccc43)cc2)c(N2CC3(CCOCC3)C2)n1 [Example 276],10 to 50 nM
23,Cc1ccc(C(=O)Nc2ccc(C(=O)N3CCc4cc(NC(=O)c5c(F)cccc5Cl)sc4-c4ccccc43)cc2)c(N2CC3(CCOCC3)C2)n1 [Example 277],10 to 50 nM
24,Cc1ccc(C(=O)Nc2ccc(C(=O)N3CCc4cc(NC(=O)c5ncccc5F)sc4-c4ccccc43)cc2)c(N2CC3(CCOCC3)C2)n1 [Example 278],< 10 nM
25,Cc1cnc(N2CC3(CCOCC3)C2)c(C(=O)Nc2ccc(C(=O)N3CCc4cc(NC(=O)c5c(C)cccc5F)sc4-c4ccccc43)cc2)c1 [Example 281],10 to 50 nM
26,Cc1cnc(N2CC3(CCOCC3)C2)c(C(=O)Nc2ccc(C(=O)N3CCc4cc(NC(=O)c5c(F)cccc5Cl)sc4-c4ccccc43)cc2)c1 [Example 282],< 10 nM
27,Cc1cnc(N2CC3(CCOCC3)C2)c(C(=O)Nc2ccc(C(=O)N3CCc4cc(NC(=O)c5ncccc5F)sc4-c4ccccc43)cc2)c1 [Example 283],< 10 nM

row,SMILES,EC50
1,Cc1cnc(N2CC3(CCOCC3)C2)c(C(=O)Nc2ccc(C(=O)N3CCc4cc(NC(=O)c5ccccc5)sc4-c4ccccc43)cc2)c1 [Example 284],< 10 nM
2,Cc1cnc(N2CC3(CCOCC3)C2)c(C(=O)Nc2ccc(C(=O)N3CCc4cc(NC(=O)c5ccccc5F)sc4-c4ccccc43)cc2)c1 [Example 285],< 10 nM
3,Cc1cnc(N2CC3(CCOCC3)C2)c(C(=O)Nc2ccc(C(=O)N3CCc4cc(NC(=O)c5c(C)cccc5C)sc4-c4ccccc43)cc2)c1 [Example 286],10 to 50 nM
4,Cc1cnc(N2CC3(CCOCC3)C2)c(C(=O)Nc2ccc(C(=O)N3CCc4cc(NC(=O)c5c(F)cccc5C(F)(F)F)sc4-c4ccccc43)cc2)c1 [Example 287],10 to 50 nM
5,Cc1cnc(N2CC3(CCOCC3)C2)c(C(=O)Nc2ccc(C(=O)N3CCc4cc(NS(=O)(=O)c5c(F)cccc5F)sc4-c4ccccc43)cc2)c1 [Example 288],> 50 nM
6,Cc1cnc(N2CC3(CCOCC3)C2)c(C(=O)Nc2ccc(C(=O)N3CCc4cc(NS(=O)(=O)c5c(C)cccc5F)sc4-c4ccccc43)cc2)c1 [Example 289],> 50 nM
7,Cc1cnc(N2CC3(CCOCC3)C2)c(C(=O)Nc2ccc(C(=O)N3CCc4cc(NS(=O)(=O)c5ccccc5F)sc4-c4ccccc43)cc2)c1 [Example 290],> 50 nM
8,Cc1cnc(N2CC3(CCOCC3)C2)c(C(=O)Nc2ccc(C(=O)N3CCc4cc(NS(=O)(=O)c5c(F)cccc5Cl)sc4-c4ccccc43)cc2)c1 [Example 291],> 50 nM
9,Cc1cnc(N2CC3(CCOCC3)C2)c(C(=O)Nc2ccc(C(=O)N3CCc4cc(NC(=O)OC5CCC5)sc4-c4ccccc43)cc2)c1 [Example 292],< 10 nM
10,Cc1cnc(N2CC3(CCOCC3)C2)c(C(=O)Nc2ccc(C(=O)N3CCc4cc(NC(=O)OC5CCCC5)sc4-c4ccccc43)cc2)c1 [Example 293],10 to 50 nM
11,Cc1cnc(N2CC3(CCOCC3)C2)c(C(=O)Nc2ccc(C(=O)N3CCc4cc(NC(=O)OC5CCCCC5)sc4-c4ccccc43)cc2)c1 [Example 294],10 to 50 nM
12,Cc1cnc(N2CC3(CCOCC3)C2)c(C(=O)Nc2ccc(C(=O)N3CCc4cc(NC(=O)OCC(F)(F)F)sc4-c4ccccc43)cc2)c1 [Example 295],< 10 nM
13,Cc1cnc(N2CC3(CCOCC3)C2)c(C(=O)Nc2ccc(C(=O)N3CCc4cc(NC(=O)Oc5ccccc5)sc4-c4ccccc43)cc2)c1 [Example 296],10 to 50 nM
14,Cc1cnc(N2CC3(CCOCC3)C2)c(C(=O)Nc2ccc(C(=O)N3CCc4cc(NC(=O)OC(C)C)sc4-c4ccccc43)cc2)c1 [Example 297],< 10 nM
15,Cc1ccc(C(=O)Nc2ccc(C(=O)N3CCc4cc(NC(=O)OC5CCC5)sc4-c4ccccc43)cc2)c(N2CC3(CCOCC3)C2)n1 [Example 298],10 to 50 nM
16,Cc1ccc(C(=O)Nc2ccc(C(=O)N3CCc4cc(NC(=O)OC5CCCC5)sc4-c4ccccc43)cc2)c(N2CC3(CCOCC3)C2)n1 [Example 299],10 to 50 nM
17,Cc1ccc(C(=O)Nc2ccc(C(=O)N3CCc4cc(NC(=O)OC5CCCCC5)sc4-c4ccccc43)cc2)c(N2CC3(CCOCC3)C2)n1 [Example 300],> 50 nM
18,Cc1ccc(C(=O)Nc2ccc(C(=O)N3CCc4cc(NC(=O)OCC(F)(F)F)sc4-c4ccccc43)cc2)c(N2CC3(CCOCC3)C2)n1 [Example 301],10 to 50 nM
19,Cc1ccc(C(=O)Nc2ccc(C(=O)N3CCc4c(sc(NC(=O)c5c(F)cccc5F)c4F)-c4ccccc43)cc2)c(N2CC3(CCOCC3)C2)n1 [Example 303],10 to 50 nM
20,Cc1cnc(N2CC3(CCOCC3)C2)c(C(=O)Nc2ccc(C(=O)N3CCc4c(sc(NC(=O)c5c(F)cccc5F)c4F)-c4ccccc43)cc2)c1 [Example 304],< 10 nM
21,Cc1cnc(N2CC3(CCOCC3)C2)c(C(=O)Nc2ccc(C(=O)N3CCc4c(sc(NC(=O)c5c(F)cccc5Cl)c4F)-c4ccccc43)cc2)c1 [Example 305],< 10 nM
22,Cc1cnc(N2CC3(CCOCC3)C2)c(C(=O)Nc2ccc(C(=O)N3CCc4c(sc(NC(=O)c5c(F)cncc5F)c4F)-c4ccccc43)cc2)c1 [Example 306],< 10 nM
23,Cc1cnc(N2CC3(CCOCC3)C2)c(C(=O)Nc2ccc(C(=O)N3CCc4c(sc(NC(=O)c5ccccc5F)c4F)-c4ccccc43)cc2)c1 [Example 307],< 10 nM
24,Cc1ccc(C(=O)Nc2ccc(C(=O)N3CCc4c(sc(NC(=O)c5c(C)cccc5F)c4F)-c4ccccc43)cc2)c(N2CC3(CCOCC3)C2)n1 [Example 308],10 to 50 nM
25,Cc1ccc(C(=O)Nc2ccc(C(=O)N3CCc4c(sc(NC(=O)c5c(F)cccc5Cl)c4F)-c4ccccc43)cc2)c(N2CC3(CCOCC3)C2)n1 [Example 309],10 to 50 nM
26,Cc1ccc(C(=O)Nc2ccc(C(=O)N3CCc4c(sc(NC(=O)c5c(Cl)cccc5Cl)c4F)-c4ccccc43)cc2)c(N2CC3(CCOCC3)C2)n1 [Example 310],10 to 50 nM

# Same assay, conditions: human respiratory syncytial virus, HEp-2, 96 h, read-out: Human RSV-A (“Long” strain) EC50
row,SMILES,EC50
1,Cc1ccc(C(=O)Nc2ccc(C(=O)N3CCc4cc(NC(=O)Oc5ccccc5)sc4-c4ccccc43)cc2)c(N2CC3(CCOCC3)C2)n1 [Example 302],> 50 nM
